Results published in patent US11400058B2, “Intravenous formulations of coenzyme Q10 (CoQ10) and methods of use thereof” (Berg LLC, priority 2010, dated 2022).
Marks after values point to notes of the source that are not given here.

Experiment: 4-week repeat-dose toxicology study in rats with 2-week recovery (Study 20000328)
Conditions: for Died or Sacrificed Moribund: animals of 15
[1] = 62.5 mg/kg M, end of dosing, animals of 10
[2] = 62.5 mg/kg M, end of recovery, animals of 5
[3] = 125 mg/kg F, end of dosing, animals of 10
[4] = 125 mg/kg F, end of recovery, animals of 5

Compound: COC1=C(OC)C(=O)C(C/C=C(\C)CC/C=C(\C)CC/C=C(\C)CC/C=C(\C)CC/C=C(\C)CC/C=C(\C)CC/C=C(\C)CC/C=C(\C)CC/C=C(\C)CCC=C(C)C)=C(C)C1=O [CoQ10, Coenzyme Q10]
- Spleen Histiocytic Infiltration, Mild [1]: 0
- Spleen Histiocytic Infiltration, Moderate [1]: 1
- ALT (62.5 mg/kg M, end of recovery): 20 IU/L
- APPT (62.5 mg/kg M, end of recovery): 16.7 s
- AST (62.5 mg/kg M, end of recovery): 79 IU/L
- Body Weight, percent difference from controls (62.5 mg/kg M, end of recovery): +7.4%
- Food Consumption, percent difference from controls (62.5 mg/kg M, end of recovery): +5.8%
- GGT (62.5 mg/kg M, end of recovery): 0.00 IU/L
- Liver weight (absolute), percent difference from controls (62.5 mg/kg M, end of recovery): +5.0%
- Spleen weight (absolute), percent difference from controls (62.5 mg/kg M, end of recovery): −22.2%
- Adrenal Gland Vacuolation [2]: 5
- Adrenal Gland Vacuolation, Marked [2]: 0
- Adrenal Gland Vacuolation, Mild [2]: 3
- Adrenal Gland Vacuolation, Minimal [2]: 2
- Adrenal Gland Vacuolation, Moderate [2]: 0
- Gross Pathology: Enlarged Spleen [2]: 0
- Gross Pathology: Pale Iliac Lymph Node [2]: 2
- Gross Pathology: Pale Liver [2]: 2
- Gross Pathology: Pale Pancreatic Lymph Node [2]: 1
- Liver Focal Necrosis [2]: 0
- Liver Focal Necrosis, Mild [2]: 0
- Liver Focal Necrosis, Minimal [2]: 0
- Liver Histiocytic Infiltration [2]: 1
- Liver Histiocytic Infiltration, Mild [2]: 0
- Liver Histiocytic Infiltration, Minimal [2]: 1
- Liver Histiocytic Infiltration, Moderate [2]: 0
- Liver Multifocal Necrosis [2]: 0
- Liver Multifocal Necrosis, Mild [2]: 0
- Liver Multifocal Necrosis, Moderate [2]: 0
- Liver Vacuolation [2]: 5
- Liver Vacuolation, Mild [2]: 1
- Liver Vacuolation, Minimal [2]: 4
- Liver Vacuolation, Moderate [2]: 0
- Lymph Node, Man. Histiocytic Infiltration [2]: 4
- Lymph Node, Man. Histiocytic Infiltration, Mild [2]: 0
- Lymph Node, Man. Histiocytic Infiltration, Minimal [2]: 4
- Lymph Node, Man. Histiocytic Infiltration, Moderate [2]: 0
- Lymph Node, Mes. Histiocytic Infiltration [2]: 5
- Lymph Node, Mes. Histiocytic Infiltration, Mild [2]: 1
- Lymph Node, Mes. Histiocytic Infiltration, Minimal [2]: 4
- Spleen Histiocytic Infiltration [2]: 2
- Spleen Histiocytic Infiltration, Marked [2]: 0
- Spleen Histiocytic Infiltration, Mild [2]: 0
- Spleen Histiocytic Infiltration, Minimal [2]: 2
- Spleen Histiocytic Infiltration, Moderate [2]: 0
- Died or Sacrificed Moribund (125 mg/kg F): 0
- ALT (125 mg/kg F, end of dosing): 20 IU/L
- APPT (125 mg/kg F, end of dosing): 14.4* seconds
- AST (125 mg/kg F, end of dosing): 76* IU/L
- Body Weight, percent difference from controls (125 mg/kg F, end of dosing): −5.5%
- Eosinophils (125 mg/kg F, end of dosing): 0.08 10^3/cmm
- Erythrocytes (125 mg/kg F, end of dosing): 6.90* 10^6/cmm
- Food Consumption, percent difference from controls (125 mg/kg F, end of dosing): −12.5* %
- GGT (125 mg/kg F, end of dosing): 0.53 IU/L
- Hematocrit (125 mg/kg F, end of dosing): 39.1* %
- Hemoglobin (125 mg/kg F, end of dosing): 13.5 g/dL
- Leukocytes (125 mg/kg F, end of dosing): 9.49 10^3/cmm
- Liver weight (absolute), percent difference from controls (125 mg/kg F, end of dosing): −0.6%
- Lymphocytes (125 mg/kg F, end of dosing): 7.35 10^3/cmm
- Neutrophils (125 mg/kg F, end of dosing): 1.64 10^3/cmm
- Spleen weight (absolute), percent difference from controls (125 mg/kg F, end of dosing): −11.2%
- Bone Marrow, Sternum Hyperplasia [3]: 0
- Bone Marrow, Sternum Hyperplasia, Mild [3]: 0
- Bone Marrow, Sternum Hyperplasia, Minimal [3]: 0
- Gross Pathology: Enlarged Pancreatic Lymph Nodes [3]: 1
- Gross Pathology: Pale Adrenal [3]: 0
- Gross Pathology: Pale Liver [3]: 10
- Gross Pathology: Pale Lymph Nodes [3]: 0
- Gross Pathology: Pale Ovaries [3]: 1
- Gross Pathology: Pale Pituitary [3]: 0
- Gross Pathology: Pale SQ Skin [3]: 3
- Liver Focal Necrosis [3]: 0
- Liver Focal Necrosis, Minimal [3]: 0
- Liver Histiocytic Infiltration [3]: 9
- Liver Histiocytic Infiltration, Mild [3]: 7
- Liver Histiocytic Infiltration, Minimal [3]: 1
- Liver Histiocytic Infiltration, Moderate [3]: 1
- Liver Vacuolation [3]: 10
- Liver Vacuolation, Mild [3]: 4
- Liver Vacuolation, Minimal [3]: 6
- Lymph Node, Man. Histiocytic Infiltration [3]: 3
- Lymph Node, Man. Histiocytic Infiltration, Mild [3]: 0
- Lymph Node, Man. Histiocytic Infiltration, Minimal [3]: 2
- Lymph Node, Man. Histiocytic Infiltration, Moderate [3]: 1
- Lymph Node, Mes. Histiocytic Infiltration [3]: 10
- Lymph Node, Mes. Histiocytic Infiltration, Mild [3]: 5
- Lymph Node, Mes. Histiocytic Infiltration, Minimal [3]: 5
- Lymph Node, Mes. Histiocytic Infiltration, Moderate [3]: 0
- Ovary Histiocytic Infiltration [3]: 10
- Ovary Histiocytic Infiltration, Mild [3]: 0
- Ovary Histiocytic Infiltration, Minimal [3]: 10
- Ovary Histiocytic Infiltration, Moderate [3]: 0
- Skin, Dermis Histiocytic Infiltration [3]: 2
- Skin, Dermis Histiocytic Infiltration, Marked [3]: 0
- Skin, Dermis Histiocytic Infiltration, Mild [3]: 1
- Skin, Dermis Histiocytic Infiltration, Moderate [3]: 1
- Skin, SQ Histiocytic Infiltration [3]: 2
- Skin, SQ Histiocytic Infiltration, Mild [3]: 2
- Spleen Histiocytic Infiltration [3]: 9
- Spleen Histiocytic Infiltration, Marked [3]: 1
- Spleen Histiocytic Infiltration, Mild [3]: 4
- Spleen Histiocytic Infiltration, Moderate [3]: 3
- ALT (125 mg/kg F, end of recovery): 21 IU/L
- APPT (125 mg/kg F, end of recovery): 15.4 s
- AST (125 mg/kg F, end of recovery): 68 IU/L
- Body Weight, percent difference from controls (125 mg/kg F, end of recovery): −3.9%
- Food Consumption, percent difference from controls (125 mg/kg F, end of recovery): −10.5%
- GGT (125 mg/kg F, end of recovery): 0.63* IU/L
- Liver weight (absolute), percent difference from controls (125 mg/kg F, end of recovery): +3.5%
- Spleen weight (absolute), percent difference from controls (125 mg/kg F, end of recovery): −3.4%
- Adrenal Gland Vacuolation [4]: 5
- Adrenal Gland Vacuolation, Marked [4]: 0
- Adrenal Gland Vacuolation, Mild [4]: 4
- Adrenal Gland Vacuolation, Minimal [4]: 0
- Adrenal Gland Vacuolation, Moderate [4]: 1
- Gross Pathology: Enlarged Spleen [4]: 0
- Gross Pathology: Pale Iliac Lymph Node [4]: 3
- Gross Pathology: Pale Liver [4]: 5
- Gross Pathology: Pale Ovaries [4]: 0
- Gross Pathology: Pale Pancreatic Lymph Node [4]: 2
- Liver Focal Necrosis [4]: 0
- Liver Focal Necrosis, Mild [4]: 0
- Liver Focal Necrosis, Minimal [4]: 0
- Liver Histiocytic Infiltration [4]: 5
- Liver Histiocytic Infiltration, Mild [4]: 3
- Liver Histiocytic Infiltration, Minimal [4]: 2
- Liver Histiocytic Infiltration, Moderate [4]: 0
- Liver Multifocal Necrosis [4]: 1
- Liver Multifocal Necrosis, Mild [4]: 1
- Liver Multifocal Necrosis, Moderate [4]: 0
- Liver Vacuolation [4]: 5
- Liver Vacuolation, Mild [4]: 4
- Liver Vacuolation, Minimal [4]: 0
- Liver Vacuolation, Moderate [4]: 1
- Lymph Node, Man. Histiocytic Infiltration [4]: 1
- Lymph Node, Man. Histiocytic Infiltration, Mild [4]: 0
- Lymph Node, Man. Histiocytic Infiltration, Minimal [4]: 2
- Lymph Node, Man. Histiocytic Infiltration, Moderate [4]: 0
- Lymph Node, Mes. Histiocytic Infiltration [4]: 5
- Lymph Node, Mes. Histiocytic Infiltration, Mild [4]: 1
- Lymph Node, Mes. Histiocytic Infiltration, Minimal [4]: 4
- Ovary Histiocytic Infiltration [4]: 5
- Ovary Histiocytic Infiltration, Mild [4]: 2
- Ovary Histiocytic Infiltration, Minimal [4]: 3
- Ovary Histiocytic Infiltration, Moderate [4]: 0
- Spleen Histiocytic Infiltration [4]: 2
- Spleen Histiocytic Infiltration, Marked [4]: 0
- Spleen Histiocytic Infiltration, Mild [4]: 0
- Spleen Histiocytic Infiltration, Minimal [4]: 2
- Spleen Histiocytic Infiltration, Moderate [4]: 0
- Died or Sacrificed Moribund (125 mg/kg M): 0
- ALT (125 mg/kg M, end of dosing): 25 IU/L
- APPT (125 mg/kg M, end of dosing): 15.9* seconds
- AST (125 mg/kg M, end of dosing): 83 IU/L
- Body Weight, percent difference from controls (125 mg/kg M, end of dosing): −8.7* %
- Eosinophils (125 mg/kg M, end of dosing): 0.08 10^3/cmm
